Patent publication US12209102B2, “Heterocyclic compounds and uses thereof” (Kumquat Biosciences Inc., priority 2022, dated 2025)

Columns and labels:
[1] = molecular target: T1, K-Ras G12S (Homo sapiens, UniProt P01116, G12S); test: HTRF resonance energy transfer assay, K-Ras G12S / SOS1 interaction; format: biochemical; conditions: HTRF assay of Example 5; read-out: IC50 against K-Ras G12S
T1 construct: made in house; host or cells: E. coli BL21 (DE3)
How it was run: (§1)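 GST-tagged K-Ras (WT or mutant) bound to anti-GST-Eu donor was mixed with His-hSOS1 bound to anti-6His-XL665 acceptor in ~5 mM HEPES pH 7.4, 150 mM NaCl, 1 mM DTT, 0.05% BSA, 0.0025% Igepal. HTRF (ex 337, em 620/665 nm) was read after ~10 min or longer. IC50 came from the 665/620 ratio over duplicates from 10 μM to 0.01 μM.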

[2] = molecular target: T2, K-Ras G12V (Homo sapiens, UniProt P01116, G12V); test: HTRF resonance energy transfer assay, K-Ras G12V / SOS1 interaction; format: biochemical; conditions: HTRF assay of Example 5; read-out: IC50 against K-Ras G12V
T2 construct: made in house; host or cells: E. coli BL21 (DE3)
T2 sequence (P01116 1-188 isoform P01116-2 G12V): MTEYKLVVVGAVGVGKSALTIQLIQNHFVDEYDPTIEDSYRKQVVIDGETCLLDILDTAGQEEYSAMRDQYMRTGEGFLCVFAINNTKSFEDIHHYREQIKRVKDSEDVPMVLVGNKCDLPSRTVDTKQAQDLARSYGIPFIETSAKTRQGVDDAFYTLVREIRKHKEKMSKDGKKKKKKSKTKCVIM
How it was run: as §1

[3] = molecular target: T3, K-Ras WT (Homo sapiens, UniProt P01116); test: HTRF resonance energy transfer assay, K-Ras WT / SOS1 interaction; format: biochemical; conditions: HTRF assay of Example 5; read-out: IC50 against K-Ras WT
T3 construct: made in house; host or cells: E. coli BL21 (DE3)
T3 sequence (P01116 1-188 isoform P01116-2): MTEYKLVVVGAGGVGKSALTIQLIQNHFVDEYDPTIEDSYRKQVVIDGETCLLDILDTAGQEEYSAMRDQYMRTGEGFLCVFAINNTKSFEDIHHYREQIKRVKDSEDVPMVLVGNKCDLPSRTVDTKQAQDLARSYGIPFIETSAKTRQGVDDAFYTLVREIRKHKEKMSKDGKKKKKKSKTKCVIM
How it was run: as §1

[4] = system: SW620 cells; test: Ras cellular assay, growth of cells with K-Ras G12V mutation (CellTiter-Glo); format: cell-based; conditions: Homo sapiens, SW-620; cell growth, Example 9, G12V mutation; read-out: IC50 against SW620 cells
How it was run: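 SW620 (K-Ras G12V) cells, e.g. 800/well in RPMI-1640 with 10% heat-inactivated FBS on standard or ultra-low attachment plates, were dosed the day after plating with e.g. a 10-point 3-fold series. Viability by CellTiter-Glo luminescence about 6 days later; IC50 from four-parameter fit.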

[5] = system: GP2D cells; test: Ras cellular assay, growth of cells with K-Ras G12D mutation (CellTiter-Glo); format: cell-based; conditions: cell growth, Example 9, G12D mutation, read-out: IC50 against GP2D cells
[6] = molecular target: T4, K-Ras G12D (Homo sapiens, UniProt P01116, G12D); test: HTRF resonance energy transfer assay, K-Ras G12D / SOS1 interaction; format: biochemical; conditions: HTRF assay of Example 5; read-out: IC50 against K-Ras G12D
T4 construct: made in house; host or cells: E. coli BL21 (DE3)
T4 sequence (P01116 1-188 isoform P01116-2 G12D): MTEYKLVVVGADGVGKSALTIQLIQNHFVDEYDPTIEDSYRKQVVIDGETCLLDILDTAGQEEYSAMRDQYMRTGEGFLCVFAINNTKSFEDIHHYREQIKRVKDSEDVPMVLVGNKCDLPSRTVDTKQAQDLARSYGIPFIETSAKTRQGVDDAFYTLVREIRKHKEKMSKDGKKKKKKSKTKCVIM
How it was run: as §1

T1 sequence (P01116 1-188 isoform P01116-2 G12S): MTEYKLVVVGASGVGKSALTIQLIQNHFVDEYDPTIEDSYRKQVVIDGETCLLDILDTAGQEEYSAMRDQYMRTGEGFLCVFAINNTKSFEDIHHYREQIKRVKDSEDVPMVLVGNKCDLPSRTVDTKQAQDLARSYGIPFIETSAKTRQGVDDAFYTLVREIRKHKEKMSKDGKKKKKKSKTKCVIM

Row | Compound | IC50 [1] | IC50 [2] | IC50 [3] | IC50 [4] | IC50 [5] | IC50 [6]
1 | N#Cc1c(N)sc2c(F)ccc(-c3c(Cl)c4c5c(nc(OC[C@@]67CCCN6C[C@H](F)C7)nc5c3F)N(C3CCOC3)[C@@H](C3(F)CC3)CO4)c12 (single isomer, unassigned) [Compound 772] | < 0.1 µM | < 0.1 µM | < 0.1 µM | < 5 µM | < 0.5 µM | < 0.1 µM
2 | C=C[C@H]1COc2c(Cl)c(-c3ccc(F)c4sc(N)c(C#N)c34)c(F)c3nc(OC[C@@]45CCCN4C[C@H](F)C5)nc(c23)N1C1CCOC1 (single isomer, unassigned) [Compound 980] | < 0.1 µM | < 0.1 µM | < 0.1 µM | < 5 µM | < 0.5 µM | < 0.1 µM
3 | CN(C)C1(CN2CCOc3c(Cl)c(-c4ccc(F)c5sc(N)c(C#N)c45)c(F)c4nc(OC[C@@]56CCCN5C[C@H](F)C6)nc2c34)CCC1 [Compound 606, 2-amino-4-(8-chloro-4-((1-(dimethylamino)cyclobutyl)methyl)-10-fluoro-2-(((2R,7aS)-2-fluorotetrahydro-1H-pyrrolizin-7a(5H)-yl)methoxy)-5,6-dihydro-4H-[1,4]oxazepino[5,6,7-de]quinazolin-9-yl)-7-fluorobenzo[b]thiophene-3-carbonitrile] | < 0.1 µM | < 0.1 µM | < 0.1 µM | < 5 µM | < 0.5 µM | < 0.1 µM
4 | COCCN1c2nc(OC[C@@]34CCCN3C[C@H](F)C4)nc3c(F)c(-c4ccc(F)c5sc(N)c(C#N)c45)c(Cl)c(c23)OC[C@@H]1CNC=O [Compound 607, N-(((5S)-9-(2-amino-3-cyano-7-fluorobenzo[b]thiophen-4-yl)-8-chloro-10-fluoro-2-(((2R,7aS)-2-fluorotetrahydro-1H-pyrrolizin-7a(5H)-yl)methoxy)-4-(2-methoxyethyl)-5,6-dihydro-4H-[1,4]oxazepino[5,6,7-de]quinazolin-5-yl)methyl)formamide] | < 0.1 µM | < 0.1 µM | < 0.1 µM | < 5 µM | < 0.5 µM | < 0.1 µM
5 | N#Cc1c(N)sc2c(F)ccc(-c3c(Cl)c4c5c(nc(OC[C@@]67CCCN6C[C@H](F)C7)nc5c3F)N(CCC(F)F)[C@@H](CNC=O)CO4)c12 [Compound 614, N-(((5S)-9-(2-amino-3-cyano-7-fluorobenzo[b]thiophen-4-yl)-8-chloro-4-(3,3-difluoropropyl)-10-fluoro-2-(((2R,7aS)-2-fluorotetrahydro-1H-pyrrolizin-7a(5H)-yl)methoxy)-5,6-dihydro-4H-[1,4]oxazepino[5,6,7-de]quinazolin-5-yl)methyl)formamide] | < 0.1 µM | < 0.1 µM | < 0.1 µM | < 5 µM | < 0.5 µM | < 0.1 µM
6 | N#Cc1c(N)sc2c(F)ccc(-c3c(Cl)c4c5c(nc(OC[C@@]67CCCN6C[C@H](F)C7)nc5c3F)N[C@@H](C(F)F)CO4)c12 [Compound 618, 2-amino-4-((R)-8-chloro-5-(difluoromethyl)-10-fluoro-2-(((2R,7aS)-2-fluorotetrahydro-1H-pyrrolizin-7a(5H)-yl)methoxy)-5,6-dihydro-4H-[1,4]oxazepino[5,6,7-de]quinazolin-9-yl)-7-fluorobenzo[b]thiophene-3-carbonitrile] | < 0.1 µM | < 0.1 µM | < 0.1 µM | < 5 µM | < 0.5 µM | < 0.1 µM
7 | N#Cc1c(N)sc2c(F)ccc(-c3c(Cl)c4c5c(nc(OC[C@@]67CCCN6C[C@H](F)C7)nc5c3F)N(CCC(F)F)[C@@H](C3CC3)CO4)c12 [Compound 668, 2-amino-4-((S)-8-chloro-5-cyclopropyl-4-(3,3-difluoropropyl)-10-fluoro-2-(((2R,7aS)-2-fluorotetrahydro-1H-pyrrolizin-7a(5H)-yl)methoxy)-5,6-dihydro-4H-[1,4]oxazepino[5,6,7-de]quinazolin-9-yl)-7-fluorobenzo[b]thiophene-3-carbonitrile] | < 0.1 µM | < 0.1 µM | < 0.1 µM | < 5 µM | < 0.5 µM | < 0.1 µM
